Measured values from a melting point compilation (Tetko et al.).

Row | Compound | melting point [°C]
1 | CC1CCC2C(C)C(=O)OCC12 (stereo not drawn) | 60.5
2 | Cc1ccc(P(c2ccccc2)c2ccccc2)cc1 | 66 to 68
3 | CC12CCC(C(=CNC(N)=O)C1=O)C2(C)C (stereo not drawn) | 197
4 | COc1ccc(C23C(=C(c4ccccc4)c4ccccc4)C4CC2C3(C)C4(C)C)cc1 (stereo not drawn) | 124
5 | ClC1=C(Cl)C(Cl)(Cl)C(Cl)=C1Cl | -9
6 | C=C1CCOC2(C(O)C(C)(O)CO)NC(=O)C1(O)NC2=O (stereo not drawn) | 188
7 | CNC(=O)ON=CC(C)(C)SC | 99
8 | C=CCn1c(N)cc(=O)n(CC)c1=O | 143
9 | Cc1noc(-c2ccccc2)c1C=O | 85 to 87
10 | CCOc1ccc(C(=O)C=CC(=O)O)cc1 | 140 to 144
11 | CC12CCC(C1(C)C)C(C/C=C\c1ccccc1)(C1(C/C=C/c3ccccc3)C(=O)C3(C)CCC1C3(C)C)C2=O (stereo not drawn) | 188
12 | Fc1cc(F)c(F)c(F)c1 | -48
13 | CCN1CCCC1CNC(=O)c1cc(S(N)(=O)=O)ccc1OC (stereo not drawn) | 178
14 | CCOP(=O)(OCC)ON1C(=O)c2cccc3cccc(c23)C1=O | 177
15 | CC(C(=O)Nc1ccc(F)c(Cl)c1)(C(F)(F)F)C(F)(F)F | 72
16 | CC(=O)OC1CCC2C3CCC4CC5(CCC4(C)C3CCC12C)OCCO5 (stereo not drawn) | 144
17 | Cn1c(=O)cc(NN)c2ccccc21 | 216
18 | Oc1cc(C(F)(F)F)ccn1 | 159
19 | CCNc1nc(NC(C)C)nc(SC)n1 | 88
20 | O=c1[nH]nc(-c2ccccc2)c2ccccc12 | 240
21 | NC(=S)Nc1cccc([N+](=O)[O-])c1 | 189 to 190

Row | Compound | melting point [°C]
22 | CC12CCC3C(CCC4CC=CCC43C)C1CCC2=O (stereo not drawn) | 104
23 | CCOC(=O)c1c(NC(=O)CN2CCN(c3ccccc3)CC2)sc2c1CCCC2 | 187 to 188
24 | COC1=CC(=O)C(C#N)C(c2ccccc2)C1 (stereo not drawn) | 167
25 | CC(O)c1c(F)c(F)c(F)c(F)c1F (stereo not drawn) | 34 to 37
26 | CCN(CC)c1ccc2nc3c4ccccc4c(=O)cc-3oc2c1 | 203 to 205
27 | O=CN(c1ccccc1)c1ccccc1 | 73.5
28 | CC(C(=O)O)C(O)(c1ccccc1)c1ccccc1 (stereo not drawn) | 182
29 | O=C(NN=C1CCCCC1)C(=O)NN=C1CCCCC1 | 210
30 | O=C(Cc1ccccc1)c1cc2c(cc1Br)OCCO2 | 142 to 144
31 | CC(c1ccccc1)C(NC(=O)OC(C)(C)C)C(=O)O (stereo not drawn) | 100 to 105
32 | Cc1ccc(-c2cnco2)cc1 | 78
33 | COC(=O)C(C)(N)Cc1c[nH]c2ccccc12 (stereo not drawn) | 139 to 142
34 | O=P(c1ccc(Cl)cc1)(c1ccc(Cl)cc1)c1ccc(Cl)cc1 | 176 to 178
35 | Nc1c(F)c(F)nc(F)c1F | 86
36 | Fc1ccc(C(=S)N2CCCCC2)cc1 | 77
37 | Cc1ccc(C2(C(=O)O)CCCC2)cc1 | 181 to 184
38 | Cc1c(C)c(C)c2c(c1C)CC1C=CC=CN1C2=O (stereo not drawn) | 139
39 | Cc1nc(-c2ccc(C=O)s2)cs1 | 127 to 128
40 | CN1CCN(CCCN2c3ccccc3Sc3ccc(Cl)cc32)CC1 | 228
41 | CC(=O)c1cc(O)ccc1O | 206
42 | O=C(O)C(F)(F)C(F)(F)C(F)(F)C(F)(C(F)(F)F)C(F)(F)F | 13

Row | Compound | melting point [°C]
43 | CC(=O)C(C(=O)OC1CC(C)CCC1C(C)C)C(C)C(C(C)=O)/C(=N\NC(N)=O)OC1CC(C)CCC1C(C)C (stereo not drawn) | 200
44 | CCCCNC(=O)NS(=O)(=O)c1ccc(N)cc1 | 144
45 | Cc1cc(N)c([N+](=O)[O-])cc1C | 141
46 | NCCCC(=O)O | 197 to 204
47 | COc1ccc(OC)c(N=C=O)c1 | 40
48 | CC(=O)Oc1c(I)cc(I)cc1C(=O)Nc1ccc(Cl)cc1 | 216
49 | CCc1cc(Cc2cc(CC)cc(C(C)(C)C)c2O)c(O)c(C(C)(C)C)c1 | 120
50 | COc1cccc2c1C(=O)c1c(O)c3c(c(O)c1C2=O)CC(O)(C(=O)CO)CC3OC1CC(N)C(O)C(C)O1 (stereo not drawn) | 345
51 | CCOC(=O)C1=NN(c2ccccc2)C(=O)C1CC1C(=O)N(c2ccccc2)N=C1C(=O)OCC (stereo not drawn) | 179
52 | CCOC(=O)C(C#N)=c1sc(=C(C#N)C(=O)OCC)s1 | 159 to 162
53 | Cc1cccc(Cl)c1N | 2
54 | O=Cc1ccc2cccnc2n1 | 138 to 143
55 | CC1(C)CCC(=O)CC1 | 42
56 | Cc1nc(C(C)(C)C)sc1C(=O)O | 156
57 | Cc1nc2ccccc2o1 | 9.5
58 | O=C(C=Cc1ccc(OC(=O)c2ccco2)cc1)c1ccccc1 | 115
59 | CCOC(=O)C=C1SC(N2CCCCC2)C(=O)N1CC (stereo not drawn) | 86
60 | O=C(Nc1cccnc1Cl)c1ccc(Cl)cc1 | 146 to 148
61 | O=C(CBr)c1cccc([N+](=O)[O-])c1 | 94
62 | CN(C)CCN1C(=O)c2ccccc2Nc2cc(Cl)ccc21 | 166
63 | CC(=O)Nc1ccc(C=Cc2ccc(NC(C)=O)cc2)cc1 | 322
